Laboratory results reported in PMC7915527, “Development of a Liquid Chromatography/Mass Spectrometry-Based Inhibition Assay for the Screening of Steroid 5-α Reductase in Human and Fish Cell Lines” (Molecules, 2021).
Several values for one entry are separate records, joined by “and”; a condition that tells them apart may be missing. Equal values may be shown once. Read-outs that look alike come from different tables or passages of the source.

Columns and labels:
[1] = target: T1, SRD5A2 (Homo sapiens, UniProt P31213); test: Cell-based 5AR activity/inhibition assay in HEK-293 cells transiently overexpressing SRD5A2; settings: 95% CI in parentheses
T1 sequence (P31213 1-254): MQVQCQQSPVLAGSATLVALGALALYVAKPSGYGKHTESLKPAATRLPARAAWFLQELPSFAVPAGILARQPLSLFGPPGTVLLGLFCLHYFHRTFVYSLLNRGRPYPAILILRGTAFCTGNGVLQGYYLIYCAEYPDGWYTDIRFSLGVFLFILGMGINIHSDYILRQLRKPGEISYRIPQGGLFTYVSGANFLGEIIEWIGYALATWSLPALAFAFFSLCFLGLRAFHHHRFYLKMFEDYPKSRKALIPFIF
Protocol: (§1) For the calculation of KM, testosterone was added in increments of 0 to 50 µM to non-vector- and SRD5A1-HEK293 cells and in increments of 0 to 10 µM to SRD5A2-HEK293 cells 24 h after transfection. The DHT levels were measured (Figure 4a). […] The IC50 values were calculated (Table 3).
(§2) Transient overexpression was induced using transfection of cDNA with lipofectamine (Thermo Fisher Scientific, Waltham, MA, USA). HEK-293 cells were seeded in 24-well plates at a density of 10^5 cells per well and incubated at 37 °C in an atmosphere of 5% CO2. After overnight culture, 500 ng of cDNA and 0.75 µL of the Lipofectamine 3000 reagent were diluted in the Opti-MEM medium and incubated for 15 min for DNA-lipid complex formation. The DNA-lipid complex was added to the wells and incubated for 6 h. After incubation, the sample-treated medium was changed to the complete culture medium and incubated for 18 h.
(§3) All cells were seeded on a 24-well plate. The seeding densities of the DU-145, LNCaP, and SW-13 cells were 0.5 × 10^5 cells per well. The ZFL and RTG-2 cells were seeded at densities of 1.0 × 10^5 cells and 2.0 × 10^5 cells, respectively. […]
(§4) The extracts were analyzed for DHT via ultra-performance LC-MS/MS (Agilent 1200/6460C QQQMSD coupled Jet Stream technology electrospray ion (ESI) source; Agilent Technologies, Santa Clara, CA, USA). […]

[2] = system: 5AR in RTG-2 cells; test: Cell-based 5AR activity/inhibition assay in rainbow trout gonad cells (RTG-2)
Protocol: (§5) For the calculation of KM for optimized assay conditions, ZFL and RTG-2 cells were treated with testosterone in increments of 0 to 50 µM. The DHT levels were measured (Figure 5a). Based on the calculated KM values, inhibition assays were conducted (Figure 5b).
(§6) HEK-293, LNCaP, DU-145, SW-13, and ZFL cell lines were obtained from the American Type Culture Collection (ATCC; Manassas, VA, USA) and cultured according to their instructions. The HEK-293 cells were cultured in a high-glucose DMEM that contained 10% FBS, 100 units/mL penicillin, and 100 µg/mL streptomycin. The DU-145 cells were cultured in EMEM that contained 10% FBS, 100 units/mL penicillin, and 100 µg/mL streptomycin. The LNCaP cells were cultured in RPMI 1640 that contained 10% FBS, 100 units/mL penicillin, and 100 µg/mL streptomycin at 37 °C in 5% CO2. SW-13 cells were cultured in Leibovitz’s L-15 medium with 10% FBS at 37 °C without CO2. ZFL cells were cultured in a complete medium that was composed of 50% L-15, 35% DMEM medium, and 15% F12 medium that contained […] sodium bicarbonate, 15 mM HEPES, 0.01 mg/mL bovine insulin, 50 ng/mL mouse EGF, 5% FBS, and 0.5% trout serum at 28 °C without CO2. RTG-2 cells were obtained from Prof. Kristin Schirmer (EAWAG, Switzerland) and cultured in the L-15 medium with 5% FBS, 100 units/mL penicillin, and 100 µg/mL streptomycin at 20 °C without CO2.
(§7) All cells were seeded on a 24-well plate. The seeding densities of the DU-145, LNCaP, and SW-13 cells were 0.5 × 10^5 cells per well. The ZFL and RTG-2 cells were seeded at densities of 1.0 × 10^5 cells and 2.0 × 10^5 cells, respectively. After overnight culture, the culture media was aspirated from each well and treated with testosterone that was diluted in the complete medium for 3 h and 6 h. In the case of transiently transfected HEK-293 cells, the testosterone treatment was applied after transient overexpression under the same conditions as other cell lines. The treated media were collected from each well and centrifuged at 3000× g for 5 min at 4 °C. The supernatants were stored at −80 °C until needed. […] The seeding conditions of all cells were the same as those previously described. After overnight culture, the culture medium was aspirated, and the cells were cotreated with a medium that contained testosterone and inhibitors for 3 h. The medium was collected from each well and centrifuged at 3000× g for 5 min at 4 °C. The supernatants were stored at −80 °C until analysis.
A method that was modified by was used for DHT extraction from the samples. Each sample, which included the calibration, QC, and assay medium, was placed in 1.5 mL PP tubes and spiked with a 0.5 ng/mL DHT-D3 internal standard prior to extraction. All sample tubes were vortexed for 5 s, and the samples were extracted using a liquid-liquid extraction (LLE) method via the addition of 600 µL of MTBE. The samples were vortexed and centrifuged at 4500× g rpm for 5 min, and the organic phase was transferred into glass tubes. The extraction step was repeated once, and the organic phase extracts were dried under a stream of nitrogen. After the samples were dried, 100 µL of the derivatization reagent and 100 µL of TEA were added for DHT derivatization. […]
(§8) The extracts were analyzed for DHT via ultra-performance LC-MS/MS (Agilent 1200/6460C QQQMSD coupled Jet Stream technology electrospray ion (ESI) source; Agilent Technologies, Santa Clara, CA, USA).

[3] = system: 5AR in ZFL cells; test: Cell-based 5AR activity/inhibition assay in zebrafish liver cells (ZFL)
Protocol: as §5, §6, §7
A method that was modified by was used for DHT extraction from the samples. […]
as §8

[4] = target: T2, 5AR (SRD5A1) in DU-145 cells (Homo sapiens, UniProt P18405); settings: DHT formation from testosterone 0 to 10 µM, 95% CI in parentheses
T2 sequence (P18405 1-259): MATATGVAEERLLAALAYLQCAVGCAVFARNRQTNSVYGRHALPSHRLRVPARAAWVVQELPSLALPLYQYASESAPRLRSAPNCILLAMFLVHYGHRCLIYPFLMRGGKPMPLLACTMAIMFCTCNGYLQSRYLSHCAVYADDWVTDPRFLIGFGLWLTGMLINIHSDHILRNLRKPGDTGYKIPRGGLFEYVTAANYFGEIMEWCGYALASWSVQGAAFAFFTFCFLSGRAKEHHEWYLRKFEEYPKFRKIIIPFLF

[5] = target: T3, SRD5A1 (Homo sapiens, UniProt P18405); test: Cell-based 5AR activity/inhibition assay in HEK-293 cells transiently overexpressing SRD5A1; settings: IC50 Value, SRD5A1-overexpressing HEK-293 cells; testosterone at KM, 3 h; 95% CI in parentheses
T3 sequence (P18405 1-259): T2 sequence (P18405 1-259)
Protocol: as §1, §2, §3, §4

[6] = target: rat and human 5α-reductase; parameters: method as in PMID 14753249, PMID 8645628, PMID 7734404, PMID 9605412, PMID 16818707; settings: ref [14],[43],[44],[45],[46],[47]; cited from earlier work
[7] = substrate: C[C@]12CC[C@H]3[C@@H](CCC4=CC(=O)CC[C@@]43C)[C@@H]1CC[C@@H]2O; test: cells, lysate or membranes; settings: 95% CI in parentheses
[8] = testosterone 0 to 50 µM, 95% CI in parentheses
[9] = testosterone at KM, 3 h, 95% CI in parentheses, read-out: IC50 Value
[10] = read-out: IC50 Value, testosterone at KM, 3 h, 95% CI in parentheses
[11] = other: LNCaP cells, testosterone 0 to 10 µM
[12] = other: SRD5A1-HEK293 cells, testosterone 0 to 50 µM, 37.0 °C
[13] = other: DU-145 cells, testosterone 0 to 10 µM
[14] = other: SRD5A2-HEK293 cells, testosterone 0 to 10 µM, 37.0 °C

In the case of `C[C@]12CC[C@H]3[C@@H](CCC4=CC(=O)CC[C@@]43C)[C@@H]1CC[C@@H]2O` [testosterone], the Vmax ([1]; SRD5A2-HEK293 cells, testosterone 0 to 10 µM) is reported as 22.52 nmol/L/h, the Km [2, 8] is reported as 1.12 nM and the Vmax [2, 8] is reported as 13.09 (11.88–14.37) nmol L^−1 h^−1. The Km [3, 8] was 0.46 nM, the Vmax [3, 8] was 116.6 nmol L^−1 h^−1 and 116.60 (106.9–126.9) nmol L^−1 h^−1 and the Vmax [4] was 75.55 nmol/L/h.

With `CC(C)(C)NC(=O)[C@H]1CC[C@H]2[C@@H]3CC[C@H]4NC(=O)C=C[C@]4(C)[C@H]3CC[C@]12C` [Finasteride, finasteride] the IC50 ([2]; testosterone at KM, 3 h, 95% CI in parentheses, listed as finasteride, read-out: IC50 Value) was 2.46 µM, the IC50 [2, 9] was 2.67 µM and the IC50 [3, 9] was 0.142 µM.

With `C[C@]12C=CC(=O)N[C@@H]1CC[C@@H]1[C@@H]2CC[C@]2(C)[C@@H](C(=O)Nc3cc(C(F)(F)F)ccc3C(F)(F)F)CC[C@@H]12` [Dutasteride, dutasteride] the IC50 [5] was 0.00127 µM, the IC50 ([1]; IC50 Value, SRD5A2-overexpressing HEK-293 cells, testosterone at KM, 3 h) was 0.00119 µM and the IC50 [2, 10] was 0.0132 µM. The IC50 [6] was 0.0002 to 0.007 µM and the IC50 [3, 10] was 0.00733 µM.

B1: 5AR (SRD5A1) in LNCaP cells (Homo sapiens) (protein)
chain: T2 sequence (P18405 1-259)
For B1, the Km [7, 11] was 15.10 (12.35–19.25) nM and the Vmax [7, 11] was 0.000644 µM/min.

B2: SRD5A1 (Homo sapiens) (protein)
chain: T2 sequence (P18405 1-259)
For B2, the Km [7, 12] was 2.29 (1.70–3.09) nM and the Vmax [7, 12] was 0.000143 µM/min.

B3: 5AR (SRD5A1) in DU-145 cells (Homo sapiens) (protein)
chain: T2 sequence (P18405 1-259)
For B3, the Km [7, 13] was 9.15 (7.01–12.81) nM and the Vmax [7, 13] was 0.00126 µM/min.

B4: SRD5A2 (Homo sapiens) (protein)
chain: T1 sequence (P31213 1-254)
With B4 the Km [7, 14] was 0.36 (0.18–0.65) nM and the Vmax [7, 14] was 0.000375 µM/min.
